Results on seven molecules are retold here after patent US20230049115A1, “SYSTEM AND METHOD FOR TARGET THERMAL ANALYSIS IN COMPLEX FLUIDS” (Portland State University, priority 2021, published 2023).

“And” between values parts separate entries of the source, which are not always exact repeats. Equal values may be shown once.

A short description of data set [1]: DSC melting temperature of pure proteins and DNA hairpin in standard buffer (Example 2). The class given is physicochemical. The settings on record: standard buffer pH=7.4, independent of concentration.
Description: Chemicals and reagents: Standard buffer for all experiments contained 150 mM NaCl, 10 mM potassium phosphate, 15 mM sodium citrate adjusted to pH=7.4 with hydrochloric acid. Pure Proteins: Human Serum Albumin (HSA) (≥99% pure, Lot number: SLBT8667) and lysozyme (recombinant, expressed in rice, Lot number: SLCH2681). The above proteins were prepared in standard buffer and stored at 4° C. for at least 24 hours before use. Concentrations of HSA and lysozyme were confirmed spectrophotometrically at A280.
DNA: The DNA was a 20-base pair hairpin purchased from IDT and received following a standard desalting routine. […] Lyophilized DNA was resuspended in standard buffer and stored at 4° C. DNA concentration matched the manufacturer specification as determined spectrophotometrically at A260.
DSC Measurements: DSC melting experiments were made using a CSC differential scanning microcalorimeter (now T.A. instruments, New Castle, Del.). […]
Baselines of the raw ΔCp or μcal versus temperature thermograms were determined using a four-point polynomial fit, over the temperature range of the transition, consistent with previous methods (Eskew et al., Anal Biochem 2021, 612:113843; Koslen et al., Adv in Biol Chem 2019, 9; Eskew et al., Anal Biochem 2021, 628:114293). […]
A further data set concerns the target T1, streptavidin (Streptomyces avidinii, UniProt P22629).
T1 construct: purchased Alfa Aesar
The data set is described as follows: DSC thermogram shift on streptavidin-biotin binding, in buffer and in reconstituted E. coli lysate. The settings on record: for Streptavidin + Biotin Tm: 2 molar equivalents of biotin. As for the experimental part:
(§1) Preparation of Samples for DSC Measurements: E. coli lysate was prepared by resuspending powdered lysate in standard PBS buffer to make a 2.7 mg/mL lysate solution. The HEK923 cell lysate was the supernatant after initial centrifugation of the crude cell lysate and received in liquid form at unknown concentration. […] Streptavidin, captopril, lisinopril, and biotin were prepared in standard buffer. All samples were incubated for 24 hours at 4° C.
(§2) DSC Measurements: DSC melting experiments were made using a CSC differential scanning microcalorimeter (now T.A. instruments, New Castle, Del.). Samples were prepared by adding specific reaction components to pre-prepared media. For DSC melting experiments, the sample heating rate was approximately 1° C./min while monitoring changes in the excess heat (microwatts) of the sample versus temperature. […] Since all experiments involved investigating interactions of ligands with proteins using DSC, we were interested in testing the sensitivity or our approach to detect proteins and protein/ligand interactions in the background solution comprised of the crude cell lysate. Consequently, all DSC measurements were made on samples in the lysate media, E. coli lysate or HEK923 supernatant, where samples were prepared. Thermograms were acquired for the complex media background, several proteins, and mixtures of these proteins with ligands, i.e. drugs or other another protein.
(§3) Data Reduction and Analysis: Where the protein concentration was known, further refinement and normalization of the data provided the familiar DSC melting curve in the form of a plot of excess heat capacity, ΔCP, of the sample as a function of increasing temperature. Plots of ΔCP versus temperature are commonly termed DSC thermograms. In this case, the enthalpy of the transition can be estimated from the integrated area under the thermogram. These enthalpies can be used to gain valuable insight into protein structural stability (Eskew et al., Anal Biochem 2021, 612:113843). […] For these measurements, meaningful transition enthalpies cannot be determined.
(§4) Baselines of the raw ΔCP or μW versus temperature thermograms for E. coli were determined using a three point polynomial fit, over the temperature range of the transition, which produced a nearly straight line from 40° C. to 110° C. Baselines of the raw ΔCP or μW versus temperature thermograms for HEK293 samples were determined by connecting a straight line between data points at 40° C. and 100° C. This baseline was then subtracted from the raw curves, producing baseline corrected thermograms used for further comparisons and analysis. Between initial and final temperatures, ΔCp, for proteins is known to vary from 7-10 kcal/mol·K (Watanabe et al., Pharm Res. 2001, 18:1775-1781; Shrake et al., Vox sanguinis 1984, 47:7-18). Baseline choices served to effectively remove this difference (Eskew et al., Anal Biochem 2021, 612:113843; Lang et al., Biotechnology Progress 2015, 31:62-69). […] For all experiments thermograms of the media alone served as the background that was subtracted from thermograms of samples containing drugs and/or proteins in the same media. These difference thermograms provided enhanced visualization of sample-specific changes, corresponding predominantly to the ligand/protein interactions of concern.
Streptavidin-Biotin: Initial investigations explored streptavidin-biotin binding in reconstituted E. coli lysate. Binding behavior was examined under several conditions meant to mimic what might be encountered in an actual expression system. FIGS. 4A-4D and 5A-5D present results of this initial study. The thermogram of the E. coli lysate alone served as the background against which streptavidin-biotin binding was examined. Along with that of the media (alone) thermograms for lysate solutions containing streptavidin in different amounts, and streptavidin plus two molar equivalents of biotin in the background media solution are also shown in FIGS. 4A-4D. […]

The target in data set [2] is T2, unpurified angiotensin converting enzyme 2 (ACE2) expressed in human embryonic kidney cells (HEK293) (Homo sapiens, UniProt Q9BYF1).
T2 construct: the expressed region for the purchased ACE2 was from Gln18-Ser740; His-tag; purchased RayBiotech Lot number: 02U2802LL; host or cells: HEK293
The format is binding.

Another data set has as its system ACE2. The following applies: previous molecular docking studies; cited from earlier work.
A further data set deals with COVID-19. The following applies: cited from earlier work.
Data set [3] is described as follows: DSC thermogram of the protein alone (Example 1: buffer, E. coli lysate or HEK293 supernatant background subtracted). The format is physicochemical. The procedure: as §1, §2, §3, §4
The thermogram measured for the supernatant, without ACE2 present, served as the background against which comparisons were made. […] These curves have similar shapes but there is a clear difference for the thermogram of the supernatant containing ACE2. To isolate and enhance the specific contributions to the thermogram of ACE2 protein, the background thermogram for the supernatant alone was subtracted from that for ACE2 in the supernatant. […] This observation is in precise agreement with published results of DSC measurements on unmodified ACE2, that also found two peaks at precisely the same temperatures (Voronov et al., FEBS Letters 2002, 522:77-82). […]

Where [4] appears, read: 1 mg/mL Streptavidin (33%, Condition-II), E. coli lysate.
[5] abbreviates: 1 mg/mL Streptavidin (control), in buffer.
[6] abbreviates: 2 mg/mL Streptavidin (11%, Condition-III), E. coli lysate.
[7] abbreviates: 2 mg/mL Streptavidin (33%, Condition-I), E. coli lysate.
Setting [8] is: Conditions-I and II, difference thermograms FIGS. 5A and 5B.
Where [9] appears, read: unpurified ACE2 in HEK293 supernatant, background subtracted (FIG. 6B).

T1 sequence (P22629 25-183): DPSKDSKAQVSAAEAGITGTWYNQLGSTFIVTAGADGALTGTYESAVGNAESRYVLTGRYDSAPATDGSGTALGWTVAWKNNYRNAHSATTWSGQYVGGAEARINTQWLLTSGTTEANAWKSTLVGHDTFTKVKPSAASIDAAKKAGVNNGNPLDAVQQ
T2 sequence (Q9BYF1 18-740): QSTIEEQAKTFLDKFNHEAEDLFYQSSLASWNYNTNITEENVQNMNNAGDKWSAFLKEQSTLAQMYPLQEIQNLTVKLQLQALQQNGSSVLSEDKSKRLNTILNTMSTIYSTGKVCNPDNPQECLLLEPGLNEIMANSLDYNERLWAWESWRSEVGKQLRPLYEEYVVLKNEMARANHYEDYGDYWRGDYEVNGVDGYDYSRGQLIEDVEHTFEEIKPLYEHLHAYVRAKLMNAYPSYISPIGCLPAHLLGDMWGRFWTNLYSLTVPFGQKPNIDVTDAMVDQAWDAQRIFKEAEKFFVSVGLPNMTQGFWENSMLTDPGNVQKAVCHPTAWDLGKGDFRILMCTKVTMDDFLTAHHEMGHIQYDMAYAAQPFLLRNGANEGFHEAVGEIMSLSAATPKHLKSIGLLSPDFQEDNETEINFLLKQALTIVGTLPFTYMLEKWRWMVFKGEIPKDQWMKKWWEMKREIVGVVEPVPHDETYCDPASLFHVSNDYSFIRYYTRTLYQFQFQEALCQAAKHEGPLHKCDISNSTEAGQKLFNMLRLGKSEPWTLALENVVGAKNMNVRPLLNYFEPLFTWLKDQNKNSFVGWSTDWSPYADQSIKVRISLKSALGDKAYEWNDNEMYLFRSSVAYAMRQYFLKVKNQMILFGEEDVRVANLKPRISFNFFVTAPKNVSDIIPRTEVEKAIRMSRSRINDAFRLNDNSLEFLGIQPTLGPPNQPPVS

As to “5′-CGGGCGCGTTTTCGCGCCCG-3′ (DNA CGGGCGCGTTTTCGCGCCCG; DNA, backbone and methylation of C not given here; hairpin) [DNA hairpin, 20-base single strand oligomer forming an intramolecular stem-loop hairpin, DNA standard molecule]”, in data set [1], the Tm was determined as 94.34±0.06 °C.
Regarding `O=C(O)CCCC[C@@H]1SC[C@@H]2NC(=O)N[C@@H]21` [Biotin, biotin], the “Streptavidin + Biotin Tm” value came to 79.96 ± 0.36 °C on streptavidin (setting [4]), 79.17 ± 0.06 °C on streptavidin (setting [5]), 80.71 ± 0.12 °C on streptavidin (setting [6]) and 81.16 ± 0.07 °C on streptavidin (setting [7]). At streptavidin (Conditions I-III), the “shift up of streptavidin melting temperature with biotin” value was 1-2 °C. Besides, at streptavidin (setting [8]), the “shift in Tm for the dominant peak on addition of biotin” value is approximately 1 °C. The “temperature shift of streptavidin thermogram with biotin” value at streptavidin (in E. coli lysate at decreased concentrations) is 1.4 °C and 0.9 °C. Also, the “reduction in peak height of streptavidin thermogram with biotin binding” value at streptavidin (streptavidin (1 mg/mL) + 2 molar equivalents biotin in buffer (FIG. 5D)) is 20%.
Turning to `C[C@H](CS)C(=O)N1CCC[C@H]1C(=O)O` [Captopril], the “binding to / effect on ACE2 from difference thermogram” value in data set [2] was “relatively lesser effect on ACE2”.
On to `NCCCC[C@H](N[C@@H](CCc1ccccc1)C(=O)O)C(=O)N1CCC[C@H]1C(=O)O` [Lisinopril], for which the “binding to ACE2 compared with captopril (docking)” value with ACE2 is recorded as “stronger binder to ACE2”. In the data set with COVID-19, the “inhibiting COVID-19 infection” value is on record as “ineffective”.
Regarding “ACE2: unpurified angiotensin converting enzyme 2 expressed in HEK293 cells, Gln18-Ser740, RayBiotech”, in data set [3] (setting [9]), the “difference thermogram peak temperature (peak assigned to C-domain)” value is 55.6 °C and the “difference thermogram peak temperature (peak assigned to N-domain)” value turned out to be 70.6 °C.
For Streptavidin, the “Streptavidin Tm” value worked out at 79.03 ± 0.18 °C in data set [3] (setting [4]), 77.39 ± 0.05 °C in data set [3] (setting [5]), 79.82 ± 0.10 °C in data set [3] (setting [6]) and 79.70 ± 0.02 °C in data set [3] (setting [7]). For the same molecule, the “melting temperature of streptavidin without biotin” value in data set [3] (Conditions I-III) was “around 80 °C”. The streptavidin peak temperature in data set [3] (setting [8]) is approximately 79 °C.
As for “lysozyme: lysozyme, recombinant, expressed in rice”, the Tm in data set [1] was found to be 64.77±0.16 °C.
